In PMC5237291, “Sigma-2 receptor agonist derivatives of 1-Cyclohexyl-4-[3-(5-methoxy-1,2,3,4-tetrahydronaphthalen-1-yl)propyl]piperazine (PB28) induce cell death via mitochondrial superoxide production and caspase activation in pancreatic cancer” (BMC Cancer, 2017):
Like-named read-outs stand apart in the source and are kept apart here.

Experiments:
[1] = system: AsPC1 cells; assay: MitoSOX Red mitochondrial superoxide by flow cytometry, AsPC1; assay type: cell-based, human; details: 50 μM, 2 h
Procedure: (§1) MitoSOX™ Red reagent is a novel fluorogenic dye specifically targeted to mitochondria in live cells. Oxidation of MitoSOX™ Red reagent by superoxide produces red fluorescence. Mitochondrial superoxide is generated as a byproduct of oxidative phosphorylation. […] MitoSOX™ Red reagent is readily oxidized by superoxide but not by other ROS- or reactive nitrogen species (RNS)–generating systems. Panc02, AsPC-1, KP-2 or BxPC3 cells were seeded into 12-well plates 24 h before treatment with sigma-2 ligands (50 μM) for 2 h at 37°C in presence or absence of α-tocopherol (100 μM) followed by staining with MitoSOX™ Red (5 μM). Two hours after red dye addition, the cells were washed twice with PBS and harvested with trypsin/EDTA buffer. The cells were washed twice with PBS before analysis with FACSCalibur (BD Bioscience, San Jose, CA). The oxidation product of MitoSOX™ Red by mitochondrial superoxide fluoresces with an emission maximus of 580 nm and was detected in the FL3 channel. Experiment was performed in triplicates.

[2] = system: caspase-3; assay: Caspase-Glo caspase-3 activity in Panc02 cells; assay type: cell-based, mouse; details: 200 μM, 5 h
Procedure: Caspase-3 activity was measured in Panc02 cell lines with a Caspase-Glo® Assay Systems (Promega) according to protocol in which the reagent contain luminogenic caspase substrates that cleaved by activated caspase. […] The contents were then mixed using plate shaker for 30 s, and incubated at room temperature for 90 min. Luminescence signal was measured using multi-mode microplate reader (BioTek). Assay was performed in triplicates, and caspase activity was plotted compared cells treated with DMSO as a control.

[3] = system: Panc02 tumors; assay: In vivo tumor growth and survival, Panc02 tumors in C57BL/6 mice; details: for Effect on tumor volume (in words): daily i.p. treatment, compared to vehicle or gemcitabine
Procedure: In this pre-clinical model, we utilized the Panc02 cell line, which is weakly immunogenic in C57BL/6 mice and aggressive with a subcutaneous inoculum of 1 × 10^5 cells being lethal within 6–8 weeks. In vivo studies with mice were performed to compare the effect of sigma-2 ligands with gemcitabine. Mice treated with vehicle alone (a mixture of 5% DMSO, 5% EtOH, and 10% Cremophor in H2O) served as the control cohort. Female C57BL/6 mice (10 weeks old, National Cancer Institute Laboratories) were injected in the right flank with 200 μL of a single-cell suspension of Panc02 cells in non-supplemented RPMI medium (1 × 10^6 cells per mouse). Treatment began when the mean tumor diameter was ~ 5 mm. […] Tumors were measured three times weekly in two dimensions with a digital caliper, and tumor volumes were calculated by the standard formula of Tumor Volume = Length x Width^2 × 0.5. All mice were euthanized when tumors reached a diameter of 15 mm or had ulcerated.

[4] = system: KCKO cells; assay: MTT cell viability, KCKO; assay type: cell-based; details: Mus musculus, 24 h treatment, viability relative to vehicle
Procedure: (§2) Determination of cell growth was performed using the MTT assay at 24 h. On day 1, pancreatic cancer cell lines were plated at a density of 2 × 10^4 cells/well in black clear-bottom 96-well plates for 24 h prior to treatment in a volume of 100 μL. On day 2, the cells were treated for 24 h with the various drugs concentration (1 μM-100 μM). Untreated cells served as a control. The various drug-solvents (EtOH, DMSO) were added in each control to evaluate a possible solvent cytotoxicity. After the established incubation time with drugs (24 h), MTT (0.5 mg/ml) was added to each well, and after 3–4 h incubation at 37 °C, the supernatant was removed. The formazan crystals were solubilized using 100 μl of DMSO/EtOH (1:1) and the absorbance values at 570 and 630 nm were determined on the multi-mode microplate reader (BioTek instruments, Winooski, VT). Different drug concentrations were assayed in triplicates.
(§3) Statistical analyses and data plotting were performed using GraphPad Prism software version 6.03 (San Diego, CA). Results were expressed as mean ± standard error of the mean of at least 3 biological replicates. EC50 values were calculated by curve fitting normalized viability versus drug concentration. Differences in viability, caspase-3 activity, and tumor volume were analyzed using two-way ANOVA to identify differences and confirmed with paired two tailed t-tests. Mann-Whitney test was used to compare the difference in CBC and biochemistry analyses. Kaplan-Meier survival analyses were used to assess differences between treatment groups and were compared using a log-rank test. A p-value < 0.05 was considered significant for all analyses.

[5] = system: KP02 cells; assay: MTT cell viability, KP02; assay type: cell-based, mouse; details: 24 h treatment, viability relative to vehicle
Procedure: as §2, §3

[6] = system: BxPC3 cells; assay: MTT cell viability, BxPC3; assay type: cell-based, human; details: 24 h treatment, viability relative to vehicle
Procedure: as §2, §3

[7] = system: AsPC-1 cells; assay: MTT cell viability, AsPC-1; assay type: cell-based; details: Homo sapiens, ASPC1, 24 h treatment, viability relative to vehicle
Procedure: as §2, §3

[8] = system: MIAPaCa-2 cells; assay: MTT cell viability, MIAPaCa-2; assay type: cell-based; details: Homo sapiens, MIA PaCa-2, 24 h treatment, viability relative to vehicle
Procedure: as §2, §3

[9] = system: Panc-1 cells; assay: MTT cell viability, Panc-1; assay type: cell-based; details: Homo sapiens, 24 h treatment, viability relative to vehicle
Procedure: as §2, §3

[10] = system: Panc02 cells; assay: MTT cell viability, Panc02; assay type: cell-based; details: Mus musculus, 24 h treatment, viability relative to vehicle
Procedure: as §2, §3

[11] = system: BxPC3 cells; assay: MitoSOX Red mitochondrial superoxide by flow cytometry, BxPC3; assay type: cell-based, human; details: 50 μM, 2 h
Procedure: as §1

[12] = target: sigma-2 receptor; details: read-out: Affinity (Ki) σ2, cited from earlier work
[13] = Toxicity evaluation on mice not bearing tumor (CBC, serum chemistry, pathology); assay type: in vivo, C57BL/6 mice; details: for Off-target effects by necropsy and laboratory evaluations: naïve C57BL/6 mice, continuous daily treatment
Procedure: […] Mice from each treatment cohort were assessed for pathologic evaluation (Digestive Diseases Research Core Center at our institution). Blood was collected for complete blood count (CBC) and biochemical analysis (AST, ALT, BUN, total protein, glucose and Cr). Organs were examined grossly and histologically.

[14] = system: Panc02 cells; assay: ROS interference in cell viability (MTT with antioxidants); assay type: cell-based, mouse; details: Panc02 cells, ligand 50 μM with NAC 100 μM, 24 h
Procedure: The interference of ROS in cell viability was indirectly determined by MTT assay reported above at 24 h. On day 1, Panc02 cells were plated at a density of 2 × 10^4 cells/well in opaque 96-well, clear-bottom plates 24 h prior to treatment. On day 2, cells were treated with the drugs (50 μM) in the presence or absence of α-tocopherol (100 μM) or N-Acetyl-L-cysteine (100 μM). After incubation (24 h) with drugs, MTT assay was performed as above.

[15] = system: Panc02 cells; assay: MitoSOX Red mitochondrial superoxide by flow cytometry, Panc02; assay type: cell-based, mouse; details: Panc02 cells, 50 μM, 2 h
Procedure: as §1

c1ccc2c(c1)c1ccccc1n2CCCN1CCN(C2CCCCC2)CC1 [F281, 1-Cyclohexyl-4-[3-(9H-carbazol-9-yl)propyl]piperazine]
Mitochondrial superoxide generation in AsPC1 [1]: generated some mitochondrial superoxide
Caspase-3 activation (in words) ([2]; compared to DMSO control): did not activate at all
Effect on tumor volume (in words) ([3]; Panc02 s.c. in female C57BL/6): did not confer a significantly different tumor volume than vehicle alone
EC50 [4]: 62 µM
EC50 [5]: 49 µM
EC50 ([5]; Mus musculus, 24 h): ~45 µM
EC50 [6]: 42 µM
EC50 ([6]; Homo sapiens, BXPC-3, 24 h): ~45 µM
EC50 [7]: 98 µM
EC50 [8]: 29 µM
EC50 [9]: > 100 µM
EC50 [10]: 37 µM
Mitochondrial superoxide generation in BxPC3 [11]: generated some mitochondrial superoxide
Ki ([12]; ref Ferorelli et al., 2007 [27]): 12.6 nM
Off-target effects by necropsy and laboratory evaluations [13]: no major off-target effects

Fc1cccc(F)c1[C@H]1CC[C@@H](N2CCN(C3CCCCC3)CC2)CC1 [PB282]
Increase of caspase-3 activity compared to cells treated with DMSO vehicle [2]: 11.8 fold
Effect on tumor volume (in words) ([3]; Panc02 s.c. in female C57BL/6): decreased tumor volume similar to gemcitabine alone
Mean tumor volume following conclusion of treatment ([3]; Panc02 s.c. in female C57BL/6, i.p. daily for two weeks (gemcitabine once weekly), vehicle mean = 924 mm^3): 483 mm^3
Median survival ([3]; Panc02 tumor-bearing C57BL/6 mice, treatment discontinued on day 15, DMSO (vehicle) 23 days): 29 days
EC50 [4]: 90 µM
EC50 ([5]; Mus musculus, 24 h): > 100 µM
Cell death on co-treatment with NAC [14]: even higher levels of cell death
EC50 ([6]; Homo sapiens, BXPC-3, 24 h): > 100 µM
Increase in MitoSOX fluorescence intensity compared to cells treated with DMSO [15]: 6.7 fold
EC50 [7]: > 100 µM
EC50 [8]: 51 µM
EC50 [9]: > 100 µM
EC50 [10]: > 100 µM
Ki ([12]; ref Abate, et al., 2011 [28]): 14.1 nM
Off-target effects by necropsy and laboratory evaluations [13]: no major off-target effects
Creatinine ([13]; not tumor-bearing C57BL/6 mice, n = 3, daily i.p., 5 days, control 0.34 ± 0.02): 0.35 ± 0.03 mg/dL
AST ([13]; not tumor-bearing C57BL/6 mice, n = 3, daily i.p., 5 days, control 5.6 ± 0.05): 5.5 ± 0.07 μ/L
RBC ([13]; not tumor-bearing C57BL/6 mice, n = 3, daily i.p., 5 days, control 7.14 ± 0.1): 9.91 ± 0.31 10^6/μL
WBC ([13]; not tumor-bearing C57BL/6 mice, n = 3, daily i.p., 5 days, control 10.58 ± 0.2): 5.78 ± 0.78 10^3/μL
HGB ([13]; not tumor-bearing C57BL/6 mice, n = 3, daily i.p., 5 days, control 10.7 ± 0.7): 15 ± 0.4 g/dL
MCH ([13]; not tumor-bearing C57BL/6 mice, n = 3, daily i.p., 5 days, control 15 ± 0.54): 15.15 ± 0.05 pg
BUN ([13]; not tumor-bearing C57BL/6 mice, n = 3, daily i.p., 5 days, control 27 ± 0.4): 24.5 ± 0.5 mg/dL
MCHC ([13]; not tumor-bearing C57BL/6 mice, n = 3, daily i.p., 5 days, control 29.2 ± 1.21): 29.4 ± 0.3%
HCT ([13]; not tumor-bearing C57BL/6 mice, n = 3, daily i.p., 5 days, control 36.6 ± 0.08): 51.1 ± 1.9%
MCV ([13]; not tumor-bearing C57BL/6 mice, n = 3, daily i.p., 5 days, control 51.2 ± 0.32): 51.55 ± 0.35 fL
ALT ([13]; not tumor-bearing C57BL/6 mice, n = 3, daily i.p., 5 days, control 260 ± 21): 221 ± 63 μ/L
Platelets ([13]; not tumor-bearing C57BL/6 mice, n = 3, daily i.p., 5 days, control 486 ± 67): 649.5 ± 167.5 10^3/μL
